The structures appear in SMILES notation.

For one test, the system named is COLO205 cells. As to the kind of experiment: PS lipase activity of membrane fraction after in situ treatment. The following applies: 1 μM, 4 h.
Another test addresses T1, ABHD16A (Homo sapiens, UniProt O95870).
T1 sequence (O95870 1-558): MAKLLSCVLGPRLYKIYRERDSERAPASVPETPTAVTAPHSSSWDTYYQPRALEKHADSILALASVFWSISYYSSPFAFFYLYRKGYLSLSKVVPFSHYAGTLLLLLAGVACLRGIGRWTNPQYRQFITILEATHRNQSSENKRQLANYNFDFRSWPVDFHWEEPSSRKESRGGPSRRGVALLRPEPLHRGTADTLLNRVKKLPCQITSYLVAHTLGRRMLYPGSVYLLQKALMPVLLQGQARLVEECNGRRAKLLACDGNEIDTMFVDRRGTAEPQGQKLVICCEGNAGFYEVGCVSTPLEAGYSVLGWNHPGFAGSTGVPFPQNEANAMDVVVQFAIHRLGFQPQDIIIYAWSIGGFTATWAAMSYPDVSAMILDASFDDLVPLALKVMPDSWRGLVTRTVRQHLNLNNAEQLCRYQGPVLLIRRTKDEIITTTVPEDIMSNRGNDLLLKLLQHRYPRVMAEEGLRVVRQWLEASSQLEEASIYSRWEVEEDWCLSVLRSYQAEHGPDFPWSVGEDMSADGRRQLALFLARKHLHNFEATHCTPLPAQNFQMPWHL
Briefly: PS substrate assay, human ABHD16A-transfected HEK293T membrane proteome. The format is biochemical. The arrangement: transiently transfected with 12 μg of the full-length cDNA of human ABHD16A (Open Biosystems Catalog # MHS6278-202758315); host or cells: HEK293T, transient, pCMV-SPORT6. On the procedure:
HEK293T cells were grown to 40% confluence in a 15 cm dish in 25 mL of Dulbecco's modified Eagle medium (DMEM) supplemented with L-glutamine and 10% (vol/vol) FCS at 37° C. and 5% CO2 (vol/vol). The cells were transiently transfected with 12 μg of the full-length cDNA of human ABHD16A (Open Biosystems Catalog # MHS6278-202758315) or murine ABHD16A (Open Biosystems Catalog # MMM1013-202760516) in pCMV-SPORT6 vector using 40 μg polyethyleneimine “MAX” (MW 40,000) (PEI) (Polysciences Inc. Catalog #24765) as the transfection reagent as per manufacturer's instructions. As a “mock” control, an empty vector was transiently transfected. […] Protein concentration was measured using the Bio-Rad DC Protein Assay Kit as per manufacturer's protocol, and ABHD16A expression was confirmed using gel-based ABPP.
All the lipid species used in the lipid substrate hydrolysis assays were purchased from Avanti Polar Lipids Inc unless mentioned otherwise. […] All the data was collected and analyzed using the Agilent MassHunter Workstation software version B.04 using the Data Acquisition and Quantitative Analysis programs respectively. Measuring the area under the peak, and normalizing it to the internal standard quantified the product release for the lipid substrate hydrolysis assays. […] Some products from the substrate hydrolysis assays were detected in positive ion mode for qualitative identification. […]

As a reminder, the IC50 is the point on the concentration scale where inhibition reaches its midpoint. Read a low IC50 as greater potency. On to `CCCCCCCCCCCCCC1OC(=O)/C1=C\CCCCC(N)=O` (centres unmarked) [KC01, (Z)-6-(2-oxo-4-tridecyloxetan-3-ylidene)hexanamide], for which, in the test on COLO205 cells, the “decrease of PS-lipase activity vs DMSO” value is > 90%. The compound further registered an IC50 against ABHD16A of 90 ± 20 nM.
